In patent US7534793B2, “Aminopiperidine quinolines and their azaisosteric analogues with antibacterial activity” (priority 2003, dated 2009):
Structures can show the parent of a compound that is named as a salt.

assay: MIC of test compounds against various organisms; type: cell-based; settings: not given

SMILES	MIC
COc1ccc2nccc([C@@H](O)CN3CCC(NCc4cc5cccc(O)c5c(=O)[nH]4)CC3)c2c1 [Example 622, (R)-2-{4-[(8-Hydroxy-1-oxo-1,2-dihydro-isoquinolin-3-ylmethyl)-amino]-piperidin-1-yl}-1-(6-methoxyquinolin-4-yl)-ethanol trihydrochloride]	≤ 0.125 µg/mL
COc1ccc2nccc([C@@H](O)CN3CCC(NCc4cc5cccnc5n4CC(=O)O)CC3)c2c1 [Example 624, (R)-1-(6-Methoxy-quinolin-4-yl)-2-{4-[(1-carboxymethyl-1H-pyrrolo[2,3-b]pyridine-2-ylmethyl)-amino]-piperidin-1-yl}-ethanol trihydrochloride]	≤ 32 µg/mL
COc1ccc2nccc([C@@H](O)CN3CCC(N(CC(=O)O)Cc4cc5cccnc5n4CC(=O)O)CC3)c2c1 [Example 625, (R)-1-(6-Methoxy-quinolin-4-yl)-2-{4-[carboxymethyl-(1-carboxymethyl-1H-pyrrolo[2,3-b]pyridine-2-ylmethyl)-amino]-piperidin-1-yl}-ethanol dihydrochloride]	≤ 32 µg/mL

same assay, conditions: against one or more of the above range of gram positive and gram negative bacteria; read-out: MIC

MIC	SMILES
≤ 32 µg/mL	COc1cc(F)c2nccc(NC(=O)N3CCC(NCc4cnc5c(O)cccc5n4)CC3)c2c1F [Example 620, 4-[(5-Hydroxy-quinoxalin-2-ylmethyl)amino]-piperidine-1-carboxylic acid (5,8-difluoro-6-methoxy-quinolin-4-yl)-amide oxalate]
≤ 2 µg/mL	COc1ccc2nccc(NC(=O)N3CCC(NCc4nc5c(F)cc(F)cc5[nH]4)CC3)c2n1 [Example 403, 4-[(4,6-Difluoro-1H-benzimidazol-2-ylmethyl)-amino]-piperidine-1-carboxylic acid (6-methoxy-[1,5]naphthyridin-4-yl)-amide, oxalate]
≤ 2 µg/mL	COc1ccc2nccc(NC(=O)N3CCC(NCc4cc5ccccc5[nH]4)CC3)c2c1 [Example 406, 4-[(1H-Indol-2-ylmethyl)-amino]-piperidine-1-carboxylic acid (6-methoxy-quinolin-4-yl)amide, oxalate]
≤ 32 µg/mL	COc1ccc2nccc([C@@H](O)CN3CCC(NCc4cc5cc(Br)ccc5[nH]4)CC3)c2c1 [Example 9, (R)-2-{4-[(5-Bromo-1 H-indol-2-ylmethyl)amino]-piperidin-1-yl}-1-(6-methoxy-quinolin-4-yl)-ethanol, dioxalate]
≤ 32 µg/mL	COc1ccc2nc(CNC3CCN(C[C@H](O)c4ccnc5ccc(OC)cc45)CC3)sc2c1 [Example 11, (R)-2-{4-[(6-Methoxy-benzothiazol-2-ylmethyl)-amino]-piperidin-1-yl}-1-(6-methoxy-quinolin-4-yl)-ethanol, dioxalate]
≤ 2 µg/mL	COc1ccc2nccc([C@@H](O)CN3CCC(NCc4cnc5scnc5c4)CC3)c2c1 [Example 623, (R)-1-(6-Methoxy-quinolin-4-yl)-2-{4-[(thiazolo[5,4-b]pyridin-6-ylmethyl)amino]-piperidin-1-yl}-ethanol dioxalate]
≤ 2 µg/mL	COc1ccc2nccc([C@@H](O)CN3CCC(NCc4nc5cc(F)c(F)cc5[nH]4)CC3)c2c1.O=C(O)C(=O)O.O=C(O)C(=O)O [Example 14, (R)-2-{4-[(5,6-Difluoro-1H-benzimidazol-2-ylmethyl)-amino]-piperidin-1-yl}-1-(6-methoxyquinolin-4-yl)-ethanol, dioxalate]
